# Results published in ChEMBL document CHEMBL4371054, “Dual inhibition of Kif15 by oxindole and quinazolinedione chemical probes” (Bioorg Med Chem Lett, 2019).
# Activity calls are given as the source filed them. The calls are words filed in the database; no cut-off is given here.
# What was measured:
# [1] = biological target: T1, Kinesin-like protein KIF15 (Homo sapiens) (UniProt Q9NS87); assay: Inhibition of Kif15 in TP53-deficient human RPE1 cells assessed as cells with bipolar pre-anaphase microtubule structure at 25 uM after 24 hrs by Hoechst 33342 staining based immunofluorescence microscopic analysis (reference value: 90 to 94%); parameters: scale not given: the % may be the effect or the level left
# T1 sequence (whole entry): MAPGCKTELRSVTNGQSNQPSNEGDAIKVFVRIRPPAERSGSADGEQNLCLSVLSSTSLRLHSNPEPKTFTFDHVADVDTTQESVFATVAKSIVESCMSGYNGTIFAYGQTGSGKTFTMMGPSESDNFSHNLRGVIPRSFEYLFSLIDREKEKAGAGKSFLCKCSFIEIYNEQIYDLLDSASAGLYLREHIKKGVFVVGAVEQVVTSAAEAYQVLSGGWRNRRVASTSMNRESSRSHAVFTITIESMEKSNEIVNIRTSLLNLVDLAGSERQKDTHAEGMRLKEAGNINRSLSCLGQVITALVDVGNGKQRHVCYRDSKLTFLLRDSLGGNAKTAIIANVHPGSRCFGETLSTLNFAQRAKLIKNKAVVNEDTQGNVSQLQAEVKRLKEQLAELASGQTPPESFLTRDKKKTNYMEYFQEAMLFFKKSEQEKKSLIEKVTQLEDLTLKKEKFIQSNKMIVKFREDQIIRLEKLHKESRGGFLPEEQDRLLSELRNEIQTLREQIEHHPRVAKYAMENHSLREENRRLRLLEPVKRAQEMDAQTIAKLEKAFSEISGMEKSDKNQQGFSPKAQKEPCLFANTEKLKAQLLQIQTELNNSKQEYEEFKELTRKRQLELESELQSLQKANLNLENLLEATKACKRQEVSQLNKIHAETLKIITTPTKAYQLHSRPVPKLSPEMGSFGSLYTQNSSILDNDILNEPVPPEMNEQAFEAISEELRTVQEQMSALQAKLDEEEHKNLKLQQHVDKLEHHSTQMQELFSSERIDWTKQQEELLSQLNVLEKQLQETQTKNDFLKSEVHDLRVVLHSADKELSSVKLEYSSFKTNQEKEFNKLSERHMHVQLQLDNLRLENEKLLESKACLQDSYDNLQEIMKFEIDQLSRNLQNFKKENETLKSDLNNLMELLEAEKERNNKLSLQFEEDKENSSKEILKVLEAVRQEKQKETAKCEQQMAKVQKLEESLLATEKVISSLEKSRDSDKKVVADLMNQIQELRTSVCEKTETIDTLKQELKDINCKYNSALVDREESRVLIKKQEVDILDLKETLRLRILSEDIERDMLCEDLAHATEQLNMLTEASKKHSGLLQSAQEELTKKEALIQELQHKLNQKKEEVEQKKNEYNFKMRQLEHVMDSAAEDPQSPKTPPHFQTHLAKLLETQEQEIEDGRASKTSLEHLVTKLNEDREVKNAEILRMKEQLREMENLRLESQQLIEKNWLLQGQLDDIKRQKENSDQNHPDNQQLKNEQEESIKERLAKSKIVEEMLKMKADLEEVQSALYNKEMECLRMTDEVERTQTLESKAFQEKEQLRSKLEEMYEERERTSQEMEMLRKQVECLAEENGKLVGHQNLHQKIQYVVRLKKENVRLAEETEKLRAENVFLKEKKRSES
# [2] = biological target: T2, Kinesin-like protein KIFC1 (Homo sapiens) (UniProt Q9BW19); assay: Inhibition of recombinant His6-tagged HSET (unknown origin) assessed as reduction in Alexa-594 labelled microtubule gliding at 30 uM measured every 2 secs for 20 secs by epifluorescence microscopic analysis relative to control
# T2 sequence (whole entry): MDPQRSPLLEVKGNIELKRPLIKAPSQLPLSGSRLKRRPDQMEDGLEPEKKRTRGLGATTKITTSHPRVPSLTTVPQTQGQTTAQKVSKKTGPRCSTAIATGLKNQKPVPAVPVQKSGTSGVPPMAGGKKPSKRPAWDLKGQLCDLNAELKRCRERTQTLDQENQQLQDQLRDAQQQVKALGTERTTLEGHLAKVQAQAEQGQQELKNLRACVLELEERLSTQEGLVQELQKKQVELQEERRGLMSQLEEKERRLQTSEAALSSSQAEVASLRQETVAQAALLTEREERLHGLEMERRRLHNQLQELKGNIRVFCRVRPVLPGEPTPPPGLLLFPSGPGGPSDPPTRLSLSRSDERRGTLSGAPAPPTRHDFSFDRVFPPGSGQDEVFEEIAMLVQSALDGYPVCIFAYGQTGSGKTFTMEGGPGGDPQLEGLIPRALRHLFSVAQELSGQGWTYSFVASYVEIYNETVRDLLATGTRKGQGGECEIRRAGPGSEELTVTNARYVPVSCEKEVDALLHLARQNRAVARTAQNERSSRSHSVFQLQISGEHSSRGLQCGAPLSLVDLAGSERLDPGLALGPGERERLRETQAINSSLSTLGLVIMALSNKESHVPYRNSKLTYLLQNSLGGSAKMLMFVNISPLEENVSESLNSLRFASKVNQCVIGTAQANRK
# [3] = biological target: T1, Kinesin-like protein KIF15 (Homo sapiens); assay: Inhibition of Kif15 in K51-resistant human KIRC1 cells assessed as increase in cells with monopolar spindles after 24 hrs by Hoechst 33342 staining based immunofluorescence microscopic analysis
# [4] = biological target: T3, Aurora kinase A (Homo sapiens) (UniProt O14965); assay: Inhibition of AURKA (unknown origin) at 1 uM relative to control
# T3 sequence (whole entry): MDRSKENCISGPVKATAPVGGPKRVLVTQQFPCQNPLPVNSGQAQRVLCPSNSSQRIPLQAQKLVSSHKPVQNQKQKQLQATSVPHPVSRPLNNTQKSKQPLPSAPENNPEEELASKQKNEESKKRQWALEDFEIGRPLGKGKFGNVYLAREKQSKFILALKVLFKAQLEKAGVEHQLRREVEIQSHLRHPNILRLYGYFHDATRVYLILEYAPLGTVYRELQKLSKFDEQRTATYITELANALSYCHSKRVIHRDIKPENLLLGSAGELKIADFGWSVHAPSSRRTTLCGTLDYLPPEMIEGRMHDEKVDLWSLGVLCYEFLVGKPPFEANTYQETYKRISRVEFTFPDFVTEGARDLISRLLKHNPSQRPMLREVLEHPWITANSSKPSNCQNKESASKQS
# [5] = biological target: T1, Kinesin-like protein KIF15 (Homo sapiens); assay: (§1) ATP non-competitive inhibition of recombinant His6-tagged Kif15 ATPase activity (N700 residues) (unknown origin) expressed in HeLa cells at 0.5 to 2 uM using microtubule as substrate preincubated for 30 mins followed by varying levels of ATP addition by double reciprocal Lineweaver-Burk plot analysis
# [6] = biological target: T4, Kinesin-like protein KIF15 (Homo sapiens, UniProt Q9NS87); assay: Inhibition of recombinant His6-tagged Kif15 ATPase activity (N420 residues) (unknown origin) expressed in HeLa cells using microtubule as substrate preincubated for 15 mins followed by ATP addition and measured after 20 mins by ADP-Glo luminescence assay
# T4 sequence (Q9NS87 whole entry): T1 sequence (whole entry)
# [7] = biological target: T1, Kinesin-like protein KIF15 (Homo sapiens); assay: as §1, with “using varying levels of” for “using”, “by” for “by varying levels of”; assay type: cell-based
structure (smiles),measurement,setting,value
O=C1Nc2ccc(C(=O)c3ccco3)cc2/C1=C/c1cc(Cl)c(O)c(Cl)c1,Activity,[1],84%
same,inhibition,[2],5.3%
same,inhibition,[3],Dose-dependent effect
same,inhibition,[4],67%
same,inhibition,[5],Active
same,IC50,[6],820 nM
same,inhibition,[7],Active
